# Assay results reported in ChEMBL document CHEMBL1201862, “PubChem BioAssay data set” (2004).
#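 Method: 48-hour compound exposure of cells in 96-well plates, five concentrations, linear interpolation of endpoints. GI50: concentration for 50% inhibition of growth.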 Activity calls are given as the source filed them. No stated cut-off is given here; in the data, active = GI50 up to about 1.1 µM and inactive = higher.
# How the values were obtained:
# Experiment in all cases: DTP human tumour cell line panel, 48 h
# ACHN = test system: ACHN
# BT-549 = test system: BT-549
# CCRF-CEM = test system: CCRF-CEM
# COLO 205 = test system: COLO 205
# HCC 2998 = test system: HCC 2998
# HOP-62 = test system: HOP-62
# KM12 = test system: KM12
# Malme-3M = test system: Malme-3M
# OVCAR-5 = test system: OVCAR-5
# OVCAR-8 = test system: OVCAR-8
# PC-3 = test system: PC-3
# RXF 393 = test system: RXF 393
# SF-268 = test system: SF-268
# SNB-19 = test system: SNB-19
# TK-10 = test system: TK-10
# UACC-257 = test system: UACC-257
# UACC-62 = test system: UACC-62
# RPMI-8226 = test system: RPMI-8226
# SK-MEL-2 = test system: SK-MEL-2
SMILES,GI50 (ACHN),GI50 (BT-549),GI50 (CCRF-CEM),GI50 (COLO 205),GI50 (HCC 2998),GI50 (HOP-62),GI50 (KM12),GI50 (Malme-3M),GI50 (OVCAR-5),GI50 (OVCAR-8),GI50 (PC-3),GI50 (RXF 393),GI50 (SF-268),GI50 (SNB-19),GI50 (TK-10),GI50 (UACC-257),GI50 (UACC-62),GI50 (RPMI-8226),GI50 (SK-MEL-2)
CN(Cc1cccc2ccsc12)/N=C\c1ccc(Cl)cc1,> 100 µM (inactive),> 100 µM (inactive),31.3 µM (inactive),74.8 µM (inactive),49.3 µM (inactive),> 100 µM (inactive),58.5 µM (inactive),> 100 µM (inactive),> 100 µM (inactive),> 100 µM (inactive),> 100 µM (inactive),> 100 µM (inactive),> 100 µM (inactive),> 100 µM (inactive),> 100 µM (inactive),18.8 µM (inactive),> 100 µM (inactive),,
Nc1ccn(C2OC(COP(=O)(O)O)C(O)C2O)c(=O)n1 (centres undefined),1.21 µM (inactive),> 100 µM (inactive),< 0.01 µM (active),> 55.3 µM (inactive),> 100 µM (inactive),0.951 µM (active),> 100 µM (inactive),,> 100 µM (inactive),2.47 µM (inactive),> 100 µM (inactive),11.1 µM (inactive),10.9 µM (inactive),23.8 µM (inactive),> 100 µM (inactive),> 63.4 µM (inactive),10.9 µM (inactive),> 100 µM (inactive),> 100 µM (inactive)
Nc1nc2cc3nc(N)c(N)nc3cc2nc1N,> 100 µM (inactive),> 100 µM (inactive),64.3 µM (inactive),> 100 µM (inactive),> 100 µM (inactive),,> 100 µM (inactive),> 100 µM (inactive),> 100 µM (inactive),> 100 µM (inactive),> 100 µM (inactive),> 100 µM (inactive),> 100 µM (inactive),> 100 µM (inactive),80.5 µM (inactive),> 100 µM (inactive),> 100 µM (inactive),> 100 µM (inactive),> 100 µM (inactive)
N=c1sc2ccccc2n1CC[S-].c1ccc2c(c1)sc1[n+]2CCS1,16.3 µM (inactive),23.1 µM (inactive),9.06 µM (inactive),14.3 µM (inactive),17.1 µM (inactive),17.3 µM (inactive),17.5 µM (inactive),17.7 µM (inactive),20.5 µM (inactive),17.1 µM (inactive),29.8 µM (inactive),20.7 µM (inactive),20 µM (inactive),19.3 µM (inactive),22.8 µM (inactive),17.8 µM (inactive),14 µM (inactive),,18.2 µM (inactive)
CCON1CC(C(=O)OC)=C(O)C1=O,> 100 µM (inactive),> 100 µM (inactive),,> 100 µM (inactive),> 100 µM (inactive),> 100 µM (inactive),> 100 µM (inactive),> 100 µM (inactive),> 100 µM (inactive),> 100 µM (inactive),> 100 µM (inactive),> 100 µM (inactive),> 100 µM (inactive),> 100 µM (inactive),> 100 µM (inactive),> 100 µM (inactive),> 100 µM (inactive),> 100 µM (inactive),> 100 µM (inactive)
Cc1cc(-c2nc3cc(O)ccc3s2)ccc1N,22.5 µM (inactive),45.8 µM (inactive),27.7 µM (inactive),21 µM (inactive),37.8 µM (inactive),26.8 µM (inactive),23.2 µM (inactive),45.7 µM (inactive),24.7 µM (inactive),47.1 µM (inactive),30.1 µM (inactive),27.5 µM (inactive),36.7 µM (inactive),33.7 µM (inactive),38.9 µM (inactive),35.1 µM (inactive),19.9 µM (inactive),,28.4 µM (inactive)
CCO/C=N\c1c(C#N)c(-c2ccc(Cl)cc2)cn1-c1ccc(C)cc1,> 100 µM (inactive),> 100 µM (inactive),> 100 µM (inactive),> 100 µM (inactive),> 100 µM (inactive),> 100 µM (inactive),,> 100 µM (inactive),> 100 µM (inactive),> 100 µM (inactive),> 100 µM (inactive),> 100 µM (inactive),> 100 µM (inactive),> 100 µM (inactive),> 100 µM (inactive),> 100 µM (inactive),> 100 µM (inactive),,> 100 µM (inactive)
CN1N(c2ccccc2)C(=O)C2=NC=C(C#N)C(=N)C21C (centres undefined),97.7 µM (inactive),> 100 µM (inactive),> 100 µM (inactive),> 100 µM (inactive),> 100 µM (inactive),,> 100 µM (inactive),> 100 µM (inactive),> 100 µM (inactive),> 100 µM (inactive),> 100 µM (inactive),> 100 µM (inactive),,> 100 µM (inactive),> 100 µM (inactive),> 100 µM (inactive),> 100 µM (inactive),> 100 µM (inactive),> 100 µM (inactive)
Cc1nc2ccc(NC3OC(CO)C(O)C(O)C3O)cc2c(=O)n1-c1ccccc1 (centres undefined),> 100 µM (inactive),> 100 µM (inactive),,> 100 µM (inactive),> 100 µM (inactive),> 100 µM (inactive),92.7 µM (inactive),> 100 µM (inactive),> 100 µM (inactive),> 100 µM (inactive),> 100 µM (inactive),> 100 µM (inactive),> 100 µM (inactive),> 100 µM (inactive),> 100 µM (inactive),> 100 µM (inactive),> 100 µM (inactive),> 100 µM (inactive),> 100 µM (inactive)
Cc1cccc(NC(=O)CC(=O)N2N=C(N3c4ccccc4Sc4ccccc43)CC2c2ccccc2)c1 (centres undefined),> 100 µM (inactive),> 100 µM (inactive),> 100 µM (inactive),> 100 µM (inactive),> 100 µM (inactive),> 100 µM (inactive),> 100 µM (inactive),,> 100 µM (inactive),> 100 µM (inactive),> 100 µM (inactive),> 100 µM (inactive),> 100 µM (inactive),> 100 µM (inactive),> 100 µM (inactive),> 100 µM (inactive),> 100 µM (inactive),> 100 µM (inactive),> 100 µM (inactive)
O=C1C(Cl)=C(NCCN2CCOCC2)C(=O)c2ncccc21,2.82 µM (inactive),1.79 µM (inactive),0.394 µM (active),,1.47 µM (inactive),2.12 µM (inactive),1.73 µM (inactive),1.71 µM (inactive),2.15 µM (inactive),1.53 µM (inactive),2.59 µM (inactive),1.95 µM (inactive),1.99 µM (inactive),1.69 µM (inactive),1.96 µM (inactive),1.71 µM (inactive),1.33 µM (inactive),,
COc1cc(C(=O)/C=C/c2ccc(OCC#N)cc2)cc(OC)c1OC,23.5 µM (inactive),17.7 µM (inactive),19.4 µM (inactive),20 µM (inactive),16.5 µM (inactive),22.1 µM (inactive),16 µM (inactive),17.4 µM (inactive),47.5 µM (inactive),29.5 µM (inactive),18.7 µM (inactive),18.1 µM (inactive),33.3 µM (inactive),20.3 µM (inactive),25.1 µM (inactive),34 µM (inactive),21.2 µM (inactive),,
COc1ccc(-c2oc3c(OC)c(OC)cc(O)c3c(=O)c2OC)cc1,> 100 µM (inactive),> 100 µM (inactive),> 100 µM (inactive),> 100 µM (inactive),> 100 µM (inactive),55.8 µM (inactive),> 100 µM (inactive),> 100 µM (inactive),> 100 µM (inactive),> 100 µM (inactive),> 10 µM (inactive),> 100 µM (inactive),> 100 µM (inactive),> 100 µM (inactive),> 100 µM (inactive),> 100 µM (inactive),> 100 µM (inactive),,> 100 µM (inactive)
Cc1cc(OCc2nnc3n2S(=O)(=O)c2ccccc2N3C)ccc1Cl,19.9 µM (inactive),18.2 µM (inactive),15.7 µM (inactive),> 100 µM (inactive),> 100 µM (inactive),14.1 µM (inactive),> 100 µM (inactive),,> 100 µM (inactive),26.3 µM (inactive),95.5 µM (inactive),21.2 µM (inactive),16.3 µM (inactive),19.3 µM (inactive),29.9 µM (inactive),61 µM (inactive),17.2 µM (inactive),,> 100 µM (inactive)
COc1ccc(CNC(=O)[C@H](Cc2ccc(O)cn2)NC(C)=O)cc1,> 100 µM (inactive),> 100 µM (inactive),> 100 µM (inactive),> 100 µM (inactive),> 100 µM (inactive),> 100 µM (inactive),> 100 µM (inactive),,> 100 µM (inactive),,> 100 µM (inactive),> 100 µM (inactive),> 100 µM (inactive),> 100 µM (inactive),> 100 µM (inactive),> 100 µM (inactive),> 100 µM (inactive),64.9 µM (inactive),> 100 µM (inactive)
O=c1[nH]nc(-c2ccccc2)n1/N=C/c1ccccc1O,63.2 µM (inactive),> 100 µM (inactive),,> 100 µM (inactive),> 100 µM (inactive),,47 µM (inactive),88.1 µM (inactive),> 100 µM (inactive),47.6 µM (inactive),89.9 µM (inactive),29.7 µM (inactive),80.2 µM (inactive),35.5 µM (inactive),> 100 µM (inactive),> 100 µM (inactive),81.1 µM (inactive),> 100 µM (inactive),> 100 µM (inactive)
